Measured values from publication PMC6271933, “Evaluation of the Toxicity of 5-Aryl-2-Aminoimidazole-Based Biofilm Inhibitors against Eukaryotic Cell Lines, Bone Cells and the Nematode Caenorhabditis elegans” (Molecules, 2014).
Values joined by “and” are separate entries in the source; they are usually repeats but may differ in a detail not shown here. Identical values can stand only once.

Columns and labels:
[1] = test system: S. Typhimurium biofilm; conditions: concentration preventing biofilm formation (at 25 °C) by 50%; as previously reported ref 13, 14, 15, 16; read-out: BIC50 S. Typhimurium; cited from earlier work
[2] = test system: murine leukemia (L1210); assay: Cytostatic activity against tumor cell lines (cell number by Coulter counter); format: cell-based; conditions: Mus musculus, L1210, 48 h; concentration inhibiting cell proliferation by 50%; two days incubation; mean of three repeats
Description: (§1) The IC50 was defined as the compound concentration required to inhibit cell proliferation by 50%. The therapeutic index (TI) was calculated as the ratio of the compound concentration producing toxicity (IC50) to the concentration needed to exert the desired ‘therapeutic’ effect on biofilms of Salmonella and Pseudomonas, indicated by the BIC50 (dose needed to prevent biofilm formation by 50%). The higher the therapeutic index, the broader the safety window of the compound.
(§2) Murine leukemia (L1210), human T-lymphocyte (CEM) and human cervix carcinoma (HeLa) were suspended at 300,000–500,000 cells/mL of culture medium, and 100 µL of a cell suspension was added to 100 µL of an appropriate dilution of the test compounds in 200 µL-wells of 96-well microtiter plates. After incubation at 37 °C for two (L1210), three (CEM) or four (HeLa) days, the cell number was determined using a Coulter counter. The IC50 was defined as the compound concentration required to inhibit cell proliferation by 50%.

[3] = test system: human T-lymphocyte (CEM); assay: as above; format: cell-based; conditions: 72 h, concentration inhibiting cell proliferation by 50%, three days incubation, mean of three repeats
Description: as §1, §2

[4] = test system: human cervix carcinoma (HeLa); assay: as above; format: cell-based; conditions: 96 h, concentration inhibiting cell proliferation by 50%, four days incubation, mean of three repeats
Description: as §1, §2

[5] = test system: P. aeruginosa biofilm; conditions: concentration preventing biofilm formation (at 25 °C) by 50%; as previously reported ref 13, 14, 15, 16; read-out: BIC50 P. aeruginosa; cited from earlier work
[6] = test system: C. elegans; format: in vivo, Caenorhabditis elegans; conditions: 25 µM, after 7 days relative to viability at day 0; mean of at least two repeats
Description: Eggs of a double mutant (glp-4Dsek-1D) of C. elegans were grown on NGM/OP50 agar plates (NGM agar plates on the surface inoculated with 100 µL of an overnight culture of OP50 Escherichia coli and stored at 4 °C until use) at 25 °C until all nematodes had reached the L4 stage. Worms were collected and washed with M9 buffer (3 g/L KH2PO4, 6 g/L Na2HPO4, 5 g/L NaCl, 1 mM MgSO4). For toxicity testing, 40 to 50 worms were suspended in 250 μL M9 (supplemented with 10 µg/mL cholesterol, 75 µg/mL ampicillin and 100 µg/mL kanamycin) buffer in each well of 24-well microtiter plates, in the presence or absence (0.5% DMSO control) of 25, 100 or 200 µM of the test compounds and grown for 7 days at 25 °C. The percentage survival of the worms in the presence or absence of anti-biofilm compounds was calculated after 7 days relative to their viability at day 0.

Compound | IC50 [1] | IC50 [2] | IC50 [3] | IC50 [4] | IC50 [5] | C. elegans % survival at 25 µM [6]
COc1ccc(-c2nc(N)[nH]c2-c2ccccc2)cc1 [compound 30] | 77.1 µM | 64.1 µM | 52.8 µM | 45.2 µM |  | 
Brc1ccc(-c2cnc(NCCCn3cc(C4CCCCC4)nn3)[nH]2)cc1 [compound 39] | 8.4 µM | 20.7 µM | 396 µM | 22.5 µM | ~12.5 µM and 12.5 µM | 99.3%
Brc1ccc(-c2cnc(NC3CCCC3)[nH]2)cc1 [compound 28] | 12.1 µM | 32.7 µM | 674 µM | 32.7 µM | 7.2 µM | 
Nc1ncc(-c2ccc(-c3ccccc3)cc2)[nH]1 [compound 3] | 17.3 µM | 37.4 µM | 13.6 µM | 34 µM | 8.6 µM | 
Nc1ncc(-c2ccc([N+](=O)[O-])cc2)[nH]1 [compound 4] | 17.6 µM | 83.3 µM | 63.7 µM | 108 µM | 34.5 µM | 97.3%
Nc1ncc(-c2ccc(Br)cc2)[nH]1 [compound 5, 5-(p-bromophenyl)-2-aminoimidazole] | 47.9 µM | 10.1 µM | 13.9 µM | 21.8 µM | 3.2 µM | 90.6%
CC(C)CNc1ncc(-c2ccccc2)[nH]1 [compound 19] | 4.9 µM | 83.6 µM | 383 µM | 91.4 µM | 1.2 µM | 
COc1ccc(-c2cnc(NCCCn3cc(-c4ccc(Br)cc4)nn3)[nH]2)cc1 [compound 38] | 91.2 µM | 18.4 µM | 597 µM | 16.8 µM | 42.7 µM | 
CCCCCCCCn1c(-c2ccccc2)cnc1N [compound 6] | 11.9 µM | 3.2 µM | 468 µM | 3 µM | 18.5 µM | 92.5%
CCCCCCCCn1c(-c2ccc(-c3ccccc3)cc2)cnc1N [compound 10] | 3.3 µM | 7.8 µM | 8.3 µM | 6.6 µM | 8.9 µM | 
CCCCCCCCCCCCCn1c(-c2ccc(Cl)cc2)cnc1N [compound 8] | 19.5 µM | 7.2 µM | 6.4 µM | 4.5 µM | 33.9 µM | 
CCCCCNc1ncc(-c2ccc(Br)cc2)[nH]1 [compound 27] | 3.1 µM | 14.9 µM | 375 µM | 16.3 µM | 10.2 µM | 
CCCCCCCCn1c(-c2cccc(Br)c2)cnc1N [compound 16] | 11.2 µM | 6.9 µM | 9.7 µM | 8 µM | 40.6 µM | 
Clc1ccc(-c2cnc(NC3CCCC3)[nH]2)cc1 [compound 24] | 4.4 µM | 35.5 µM | 591 µM | 28.8 µM | 13.5 µM | 100.1%
c1ccc(-c2cn(CCCCNc3ncc(-c4ccccc4)[nH]3)nn2)cc1 [compound 37] | 40 µM | 218 µM | 459 µM | 107 µM | 19 µM | 86.4%
Nc1ncc(-c2ccc(-c3ccccc3)cc2)n1C1CCCCCCC1 [compound 13] | ~22.9 µM and 22.9 µM | 6.9 µM | 4.9 µM | 6.9 µM | 3.2 µM | 
Nc1ncc(-c2ccc(Cl)cc2)[nH]1 [compound 2] | 16 µM | 77.5 µM | 49.6 µM | 72.3 µM | 3.5 µM | 84.9%
c1ccc(-c2cn(CCCNc3ncc(-c4ccccc4)[nH]3)nn2)cc1 [compound 36] | 36.5 µM | 221 µM | 453 µM | 72.9 µM | > 400 µM | 87.7%
Nc1nc(-c2ccc(Cl)cc2)c(-c2ccccc2)[nH]1 [compound 31] | 46.9 µM | 59.3 µM | 48.2 µM | 40.8 µM |  | 
Nc1nc(-c2ccc(C(F)(F)F)cc2)c(-c2ccc(Cl)cc2)[nH]1 [compound 33] | 10.8 µM | 41.5 µM | 35.5 µM | 26.1 µM |  | 
